{
  "source": "patent US11572590B2",
  "about": "“Methods for evaluating tumor cell spheroids using 3D microfluidic cell culture device” (Dana-Farber Cancer Institute, Inc., priority 2017, dated 2023)",
  "experiment_in_all_cases": "SelectScreen Kinase Profiling, single point inhibition and IC50 for off-target kinases",
  "assay_type_in_all_cases": "biochemical",
  "key": {"off-target kinases [1]": {"biological_target": "off-target kinases (Homo sapiens, UniProt P30530)", "sequence (P30530 26-894)": "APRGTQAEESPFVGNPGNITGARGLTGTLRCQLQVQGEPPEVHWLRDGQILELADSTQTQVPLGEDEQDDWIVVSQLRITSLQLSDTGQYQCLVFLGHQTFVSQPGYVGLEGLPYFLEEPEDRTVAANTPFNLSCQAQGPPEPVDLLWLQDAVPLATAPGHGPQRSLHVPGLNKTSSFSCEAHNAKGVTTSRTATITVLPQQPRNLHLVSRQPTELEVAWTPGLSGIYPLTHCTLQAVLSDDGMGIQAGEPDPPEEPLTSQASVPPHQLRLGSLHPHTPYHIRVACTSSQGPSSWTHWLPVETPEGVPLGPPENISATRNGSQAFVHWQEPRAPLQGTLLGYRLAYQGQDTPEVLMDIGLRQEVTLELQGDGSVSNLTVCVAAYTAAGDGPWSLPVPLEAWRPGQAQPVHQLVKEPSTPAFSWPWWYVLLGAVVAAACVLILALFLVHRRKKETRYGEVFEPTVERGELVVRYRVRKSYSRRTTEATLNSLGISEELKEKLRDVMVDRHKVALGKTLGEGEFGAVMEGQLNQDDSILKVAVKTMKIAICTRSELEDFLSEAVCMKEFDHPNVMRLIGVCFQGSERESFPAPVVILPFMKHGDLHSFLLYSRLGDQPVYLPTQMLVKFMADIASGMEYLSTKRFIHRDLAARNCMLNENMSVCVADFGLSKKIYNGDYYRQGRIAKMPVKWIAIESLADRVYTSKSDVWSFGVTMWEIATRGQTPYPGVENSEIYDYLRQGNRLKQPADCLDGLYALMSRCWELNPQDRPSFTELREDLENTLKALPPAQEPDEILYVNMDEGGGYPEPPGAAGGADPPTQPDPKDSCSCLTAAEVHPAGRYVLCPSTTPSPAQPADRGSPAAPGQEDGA", "details": "AXL, ZLYTE, ATP Km app"}, "off-target kinases [2]": {"biological_target": "off-target kinases (Homo sapiens, UniProt P51617)", "sequence (P51617 whole entry)": "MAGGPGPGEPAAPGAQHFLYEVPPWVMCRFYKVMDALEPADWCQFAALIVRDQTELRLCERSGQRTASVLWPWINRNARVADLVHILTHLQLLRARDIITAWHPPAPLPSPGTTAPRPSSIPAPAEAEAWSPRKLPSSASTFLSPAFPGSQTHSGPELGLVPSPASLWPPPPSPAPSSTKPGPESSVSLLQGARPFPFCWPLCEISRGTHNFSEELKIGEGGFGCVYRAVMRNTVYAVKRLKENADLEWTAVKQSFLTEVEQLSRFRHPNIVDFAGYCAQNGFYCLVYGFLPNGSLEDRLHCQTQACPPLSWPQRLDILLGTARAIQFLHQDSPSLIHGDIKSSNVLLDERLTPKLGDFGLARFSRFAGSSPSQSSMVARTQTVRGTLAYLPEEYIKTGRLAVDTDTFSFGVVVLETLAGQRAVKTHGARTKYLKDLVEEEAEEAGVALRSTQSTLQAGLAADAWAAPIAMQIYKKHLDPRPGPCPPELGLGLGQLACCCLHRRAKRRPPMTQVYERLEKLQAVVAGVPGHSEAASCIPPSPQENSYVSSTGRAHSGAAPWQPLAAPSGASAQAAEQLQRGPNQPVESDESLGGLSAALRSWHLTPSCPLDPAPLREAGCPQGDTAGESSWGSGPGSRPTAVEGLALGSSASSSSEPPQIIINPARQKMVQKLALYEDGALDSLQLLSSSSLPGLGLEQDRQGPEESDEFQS", "details": "IRAK1, ATP Km app, Adapta"}, "off-target kinases [3]": {"biological_target": "off-target kinases (Homo sapiens, UniProt P16234, V561D)", "sequence (P16234 24-1089 V561D)": "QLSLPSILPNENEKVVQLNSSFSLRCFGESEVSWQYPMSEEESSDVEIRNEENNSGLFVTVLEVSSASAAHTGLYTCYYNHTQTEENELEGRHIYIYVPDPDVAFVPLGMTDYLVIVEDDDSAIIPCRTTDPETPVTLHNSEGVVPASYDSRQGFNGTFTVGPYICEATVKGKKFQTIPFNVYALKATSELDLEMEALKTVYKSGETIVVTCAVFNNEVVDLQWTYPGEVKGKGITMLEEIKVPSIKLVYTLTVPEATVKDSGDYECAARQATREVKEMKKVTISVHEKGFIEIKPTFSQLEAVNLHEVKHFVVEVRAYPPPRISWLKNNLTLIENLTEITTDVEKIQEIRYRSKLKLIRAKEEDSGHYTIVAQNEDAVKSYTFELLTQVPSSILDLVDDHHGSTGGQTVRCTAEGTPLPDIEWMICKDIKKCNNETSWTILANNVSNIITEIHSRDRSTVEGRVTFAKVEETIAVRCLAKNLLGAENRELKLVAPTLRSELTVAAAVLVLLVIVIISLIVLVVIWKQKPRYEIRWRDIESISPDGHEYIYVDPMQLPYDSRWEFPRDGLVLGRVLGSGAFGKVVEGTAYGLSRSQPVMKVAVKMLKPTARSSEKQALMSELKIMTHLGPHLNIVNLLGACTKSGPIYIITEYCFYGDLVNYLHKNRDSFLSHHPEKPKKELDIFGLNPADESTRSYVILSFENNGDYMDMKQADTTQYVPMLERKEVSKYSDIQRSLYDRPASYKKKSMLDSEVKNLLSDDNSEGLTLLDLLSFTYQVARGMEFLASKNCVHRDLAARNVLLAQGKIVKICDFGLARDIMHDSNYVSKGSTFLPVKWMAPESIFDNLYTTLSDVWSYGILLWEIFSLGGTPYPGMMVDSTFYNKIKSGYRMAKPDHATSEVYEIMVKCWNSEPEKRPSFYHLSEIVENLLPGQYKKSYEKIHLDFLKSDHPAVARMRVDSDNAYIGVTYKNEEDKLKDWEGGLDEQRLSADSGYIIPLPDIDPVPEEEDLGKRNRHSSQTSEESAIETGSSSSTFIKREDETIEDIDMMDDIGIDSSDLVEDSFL", "details": "PDGFRA V561D, ATP Km app, ZLYTE"}, "off-target kinases [4]": {"biological_target": "T1, off-target kinases (Homo sapiens, UniProt Q06418)", "T1 sequence (Q06418 41-890)": "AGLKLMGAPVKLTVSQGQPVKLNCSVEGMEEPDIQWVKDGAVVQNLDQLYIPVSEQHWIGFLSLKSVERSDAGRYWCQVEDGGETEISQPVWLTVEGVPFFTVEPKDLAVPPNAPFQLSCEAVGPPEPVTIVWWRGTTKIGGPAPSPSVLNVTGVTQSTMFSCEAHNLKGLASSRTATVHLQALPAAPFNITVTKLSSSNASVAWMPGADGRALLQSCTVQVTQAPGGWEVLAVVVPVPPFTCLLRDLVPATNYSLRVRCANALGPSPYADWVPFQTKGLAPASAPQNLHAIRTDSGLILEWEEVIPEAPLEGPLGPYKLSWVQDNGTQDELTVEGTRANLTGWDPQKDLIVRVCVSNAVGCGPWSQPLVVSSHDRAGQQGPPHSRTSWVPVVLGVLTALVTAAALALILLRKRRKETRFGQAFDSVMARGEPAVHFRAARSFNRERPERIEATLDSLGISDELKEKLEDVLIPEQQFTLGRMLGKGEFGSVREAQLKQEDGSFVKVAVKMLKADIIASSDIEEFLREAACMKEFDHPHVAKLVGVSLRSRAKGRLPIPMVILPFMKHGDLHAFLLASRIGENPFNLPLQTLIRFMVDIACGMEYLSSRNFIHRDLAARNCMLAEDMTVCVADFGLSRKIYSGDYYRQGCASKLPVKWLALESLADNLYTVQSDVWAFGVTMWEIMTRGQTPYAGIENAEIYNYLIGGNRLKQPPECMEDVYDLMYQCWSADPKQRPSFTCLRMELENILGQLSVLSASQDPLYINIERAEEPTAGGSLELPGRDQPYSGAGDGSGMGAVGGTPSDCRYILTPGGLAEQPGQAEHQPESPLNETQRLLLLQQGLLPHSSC", "details": "TYRO3 (RSE), ZLYTE, ATP Km app"}, "off-target kinases [5]": {"biological_target": "off-target kinases (Homo sapiens, UniProt P22607)", "sequence (P22607 23-806)": "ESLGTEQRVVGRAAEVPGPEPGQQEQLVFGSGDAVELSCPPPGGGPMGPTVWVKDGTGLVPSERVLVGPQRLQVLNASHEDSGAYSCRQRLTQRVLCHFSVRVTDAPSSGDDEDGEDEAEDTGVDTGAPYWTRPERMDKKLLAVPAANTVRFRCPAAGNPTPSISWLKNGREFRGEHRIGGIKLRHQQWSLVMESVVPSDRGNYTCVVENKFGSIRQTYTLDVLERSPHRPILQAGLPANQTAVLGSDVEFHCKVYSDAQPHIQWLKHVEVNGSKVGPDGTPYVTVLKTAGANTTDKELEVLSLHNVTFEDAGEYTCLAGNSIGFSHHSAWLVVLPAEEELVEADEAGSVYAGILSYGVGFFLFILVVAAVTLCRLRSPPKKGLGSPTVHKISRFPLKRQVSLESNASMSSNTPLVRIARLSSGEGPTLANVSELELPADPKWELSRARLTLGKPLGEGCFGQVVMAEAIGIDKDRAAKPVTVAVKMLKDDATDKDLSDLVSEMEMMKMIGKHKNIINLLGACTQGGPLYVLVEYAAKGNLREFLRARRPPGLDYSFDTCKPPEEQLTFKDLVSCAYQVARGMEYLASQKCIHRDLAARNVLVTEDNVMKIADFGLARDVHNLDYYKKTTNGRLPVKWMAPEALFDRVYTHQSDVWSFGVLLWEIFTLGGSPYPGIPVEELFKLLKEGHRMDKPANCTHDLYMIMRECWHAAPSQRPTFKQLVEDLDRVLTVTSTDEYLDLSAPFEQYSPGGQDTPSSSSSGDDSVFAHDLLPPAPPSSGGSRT", "details": "FGFR3, ZLYTE, ATP Km app"}},
  "note": "Like-named read-outs stand apart in the source and are kept apart here.",
  "data": [
    {"smiles": "N#Cc1cc(-c2ncnc(Nc3ccc(N4CCN(C5COC5)CC4)cc3)n2)ccc1OC1CCOCC1", "note": "[Compound 1, 5-(4-((4-(4-(oxetan-3-yl)piperazin-1-yl)phenyl)amino)-1,3,5-triazin-2-yl)-2-((tetrahydro-2H-pyran-4-yl)oxy)benzonitrile]", "values": [
      {"measurement": "inhibition", "setting": "off-target kinases [1]; read-out: % Inhibition 1", "value": 22, "unit": "%"},
      {"measurement": "inhibition", "setting": "off-target kinases [1]; read-out: % Inhibition 2", "value": 25, "unit": "%"},
      {"measurement": "inhibition", "setting": "off-target kinases [1]; read-out: % Inhibition Avg", "value": 24, "unit": "%"},
      {"measurement": "inhibition", "setting": "off-target kinases [2]; read-out: % Inhibition 1", "value": 94, "unit": "%"},
      {"measurement": "inhibition", "setting": "off-target kinases [2]; read-out: % Inhibition 2", "value": 96, "unit": "%"},
      {"measurement": "inhibition", "setting": "off-target kinases [2]; read-out: % Inhibition Avg", "value": 95, "unit": "%"},
      {"measurement": "inhibition", "setting": "off-target kinases [3]; read-out: % Inhibition 1", "value": 85, "unit": "%"},
      {"measurement": "inhibition", "setting": "off-target kinases [3]; read-out: % Inhibition 2", "value": 81, "unit": "%"},
      {"measurement": "inhibition", "setting": "off-target kinases [3]; read-out: % Inhibition Avg", "value": 83, "unit": "%"},
      {"measurement": "inhibition", "setting": "off-target kinases [4]; read-out: % Inhibition 1", "value": 42, "unit": "%"},
      {"measurement": "inhibition", "setting": "off-target kinases [4]; read-out: % Inhibition 2", "value": 39, "unit": "%"},
      {"measurement": "inhibition", "setting": "off-target kinases [4]; read-out: % Inhibition Avg", "value": 41, "unit": "%"},
      {"measurement": "inhibition", "setting": "off-target kinases [5]; read-out: % Inhibition 1", "value": 6, "unit": "%"},
      {"measurement": "inhibition", "setting": "off-target kinases [5]; read-out: % Inhibition 2", "value": 4, "unit": "%"},
      {"measurement": "inhibition", "setting": "off-target kinases [5]; read-out: % Inhibition Avg", "value": 5, "unit": "%"}
    ]}
  ]
}
